Literature values as cited in patent publication US20100323983A1, “PHARMACEUTICAL OR COSMETIC PREPARATIONS FOR TOPICAL AND/OR PARENTERAL APPLICATION, PREPARATION METHODS THEREOF, AND USES THEREOF” (priority 2007, published 2010).

Conditions: humans

## hyaluronic acid
  excretion in the urine: less than 1 % of total clearance
